Reference: ChEMBL document CHEMBL4304763 (Eur J Med Chem, 2019)
Values belong to the compound of their own block, whether it stands above or below them. Active and inactive are the calls of the source. No cut-off for these calls is given here.

Experiments:
MCF7 [1] = assay: cells; conditions: Homo sapiens
T47D = assay: cells; conditions: Homo sapiens
COLO 205 [2] = assay: cells; conditions: Homo sapiens
A549 = assay: cells; conditions: Homo sapiens
ZR-75-1 = assay: cells; conditions: Homo sapiens
PC-3 = assay: cells; conditions: Homo sapiens
in vitro [3] = conditions: dog, microsomes
CFPAC-1 = assay: cells; conditions: Homo sapiens
in vitro [4] = conditions: rhesus monkey, microsomes
in vivo [5] = conditions: BALB/c, mouse, iv, 3 mg/kg
in vitro [6] = conditions: mouse, microsomes
U-251 = assay: cells; conditions: Homo sapiens
in vivo [7] = conditions: BALB/c, mouse, po, 10 mg/kg
in vitro [8] = conditions: mouse, microsomes; remark: listed apart in the source
PANC-1 = assay: cells; conditions: Homo sapiens
in vivo [9] = conditions: BALB/c, mouse, iv, 3 mg/kg; remark: listed apart in the source
in vitro [10] = conditions: human, microsomes
in vivo [11] = conditions: BALB/c, mouse, po, 10 mg/kg; remark: listed apart in the source
COLO 205 [12] = conditions: Homo sapiens
MCF7 [13] = type: functional, Homo sapiens; conditions: at 50 mg/kg
in vivo [14] = conditions: BALB/c, mouse, po, 10 mg/kg; remark: listed apart in the source
HepG2 = assay: cells; conditions: Homo sapiens
BXPC-3 = assay: cells; conditions: Homo sapiens
U-87 MG = assay: cells; conditions: Homo sapiens
NCI-H1975 = assay: cells; conditions: Homo sapiens
NCI-H1993 = assay: cells; conditions: Homo sapiens
in vivo [15] = conditions: BALB/c, mouse, iv, 3 mg/kg; remark: listed apart in the source
SNU-5 = assay: cells; conditions: Homo sapiens
NCI-N87 = assay: cells; conditions: Homo sapiens
in vitro [16] = conditions: rat, microsomes
in vitro [17] = conditions: rhesus monkey, microsomes; remark: listed apart in the source
in vivo [18] = conditions: BALB/c, mouse, iv, 3 mg/kg; remark: listed apart in the source
in vitro [19] = conditions: human, microsomes; remark: listed apart in the source
in vivo [20] = conditions: BALB/c, mouse, po, 10 mg/kg; remark: listed apart in the source
in vitro [21] = conditions: dog, microsomes; remark: listed apart in the source
in vitro [22] = conditions: rat, microsomes; remark: listed apart in the source
LNCaP = assay: cells; conditions: Homo sapiens
in vivo [23] = conditions: BALB/c, mouse, iv, 3 mg/kg; remark: listed apart in the source

Structure (SMILES): Cc1nc2c(F)cc(-c3nc(Nc4ccc5c(n4)CCN(CCN(C)P(C)(C)=O)C5)ncc3F)cc2n1C(C)C
IC50 (MCF7 [1]): 551 nM
IC50 (T47D): 29 nM
IC50 (COLO 205 [2]): 387 nM
IC50 (A549): 934 nM

Structure (SMILES): CCOP(=O)(OCC)N(C)CCN1CCc2nc(Nc3ncc(F)c(-c4cc(F)c5nc(C)n(C(C)C)c5c4)n3)ccc2C1
IC50 (MCF7 [1]): 150 nM
IC50 (COLO 205 [2]): 911 nM
IC50 (A549): 1060 nM
IC50 (ZR-75-1): 453 nM

IC50 (MCF7 [1]): 193 nM
IC50 (T47D): 62.5 nM
IC50 (COLO 205 [2]): 125 nM
IC50 (A549): 423 nM
IC50 (ZR-75-1): 121 nM
Structure (SMILES): C/C(=N\O)N(C)CCN1CCc2nc(Nc3ncc(F)c(-c4cc(F)c5nc(C)n(C(C)C)c5c4)n3)ccc2C1

IC50 (PC-3): 9210 nM
half-life at 1 h (in vitro [3]): 17.8 min
IC50 (CFPAC-1): 371 nM
half-life at 1 h (in vitro [4]): 3.96 min
Vd at 24 h (in vivo [5]): 8.24 L/kg
microsomal CLint at 1 h (in vitro [6]): 168 µL/min/mg
IC50 (U-251): 294 nM
Cmax at 24 h (in vivo [7]): 577 ng/mL
half-life at 1 h (in vitro [8]): 8.25 min
IC50 (PANC-1): 701 nM
AUC(0-t) at 24 h (in vivo [9]): 830 ng·h/mL
half-life at 1 h (in vitro [10]): 8.15 min
half-life at 24 h (in vivo [11]): 283 min
AUC(0-t) at 24 h (in vivo [14]): 2170 ng·h/mL
IC50 (HepG2): 216 nM
IC50 (BXPC-3): 127 nM
IC50 (U-87 MG): 706 nM
IC50 (NCI-H1975): 774 nM
IC50 (NCI-H1993): 1160 nM
half-life at 24 h (in vivo [15]): 325 min
IC50 (SNU-5): 523 nM
IC50 (NCI-N87): 519 nM
half-life at 1 h (in vitro [16]): 231 min
microsomal CLint at 1 h (in vitro [17]): 350 µL/min/mg
Cmax at 24 h (in vivo [18]): 765 ng/mL
microsomal CLint at 1 h (in vitro [19]): 170 µL/min/mg
bioavailability at 24 h (in vivo [20]): 78.6%
microsomal CLint at 1 h (in vitro [21]): 78 µL/min/mg
microsomal CLint at 1 h (in vitro [22]): 6 µL/min/mg
IC50 (LNCaP): 84 nM
clearance at 24 h (in vivo [23]): 60 mL/min/kg
Structure (SMILES): CCN1CCN(Cc2ccc(Nc3ncc(F)c(-c4cc(F)c5nc(C)n(C(C)C)c5c4)n3)nc2)CC1 [ABEMACICLIB]
TGI (COLO 205 [12]): Active
T/C (MCF7 [13]): 37%
